For the experiment, the system named is hematopoietic progenitors (MPP^FL+, CLP, DN1, DN2, DN3). The experiment can be described thus: OP9:OP9DL1 stromal co-cultures, myeloid versus lymphoid progeny by flow cytometry. The class given is cell-based, mouse. The note with it: 50 nM; for myeloid versus lymphoid progeny: DN3 progenitors; for myeloid versus lymphoid progeny / percentage of myeloid progeny versus lymphoid progeny: 6 days after plating on OP9:OP9DL1 stroma; for percentage of myeloid progeny versus lymphoid progeny: MPP^FL+, CLP, DN1 and DN2 progenitors. An excerpt:
FIG. 6 is a series of graphical representations of FACS plots and quantitation of myeloid versus lymphoid progeny. FIG. 6a are representative FACS plots of progeny from hematopoietic progenitors 6 days after plating on OP9:OP9DL1 stroma in the presence or absence of 5-aza-2′deoxycytidine. […] FIG. 6b is a histogram depicting quantitation of myeloid versus lymphoid progeny. The percentage of myeloid versus lymphoid progeny, as defined above, were quantified for each well from the experiment in a. Each bar represents the average of triplicate wells, and the error bars are the standard deviations between wells.
OP9:OP9DL1 stromal co-cultures. 3000 OP9 and 3000 OP9DL1 cells were plated in each well of 96 well plates in MEMa+10% FBS. The next day, 50 double-sorted progenitors were plated per well in the presence of 5 ng/ml IL-7 and F1t3L, and 10 ng/ml IL-3, IL-6, M-CSF, GM-CSF, and G-CSF (PeproTech). 50 nM 5-aza-2′-deoxycytide (Sigma) or vehicle (50% acetic acid) was added to the wells as indicated. At day 3, half of the media plus cytokines and drugs was replaced. At day 6, progeny from each well were stained and analyzed by flow cytometry to identify lymphoid versus myeloid progeny.
To test the hypothesis that reduced methylation preferentially promotes myeloid as opposed to lymphoid differentiation, an in vitro assay system that promotes both myeloid and lymphoid development was used (as in Engel et al., Epigenetics. 2009;4:98-99 and Bell et al., Nature. 2008;452:764-767). […] It evident that inhibiting DNA methylation promotes myeloid versus lymphoid specification, providing a mechanism for the myeloid skewing observed in Dnmt1 hypomorphs.
(In general: In flow cytometry, cells or beads pass a laser one at a time.)

Where [1] appears, read: listed as 5-aza-2′deoxycytidine.

As for `Nc1ncn([C@H]2C[C@H](O)[C@@H](CO)O2)c(=O)n1` [5-aza-2′-deoxycytidine], the “myeloid versus lymphoid progeny” value is listed as “remained lymphoid committed” and the “percentage of myeloid progeny versus lymphoid progeny” value was “increased at the expense of lymphoid progeny”. The “myeloid skewing, compared between progenitor populations” value (DN1 cells, 6 days) is on record as “most pronounced in DN1 cells”. In addition, under setting [1], the “myeloid versus lymphoid progeny” value was “continued to generate an exclusively lymphoid readout” and the “percentage of myeloid progeny versus lymphoid progeny” value is recorded as “trended towards generating more myeloid progeny”. Besides, the cell expansion result (DN3 wells, 6 days) is listed as “inhibited cell expansion”.

Source of the values: patent publication US20130281304A1, “Comprehensive Methylome Map of Myeloid and Lymphoid Commitment from Hematopoietic Proenitors” (priority 2010, published 2013).
